Measurements published in patent US10765116B2, “2-[3-(alkylsulfonyl)-2H-indazol-2-yl]-3H-imidazo[4,5-B]pyridine derivatives and similar compounds as pesticides” (BAYER CROPSCIENCE AKTIENGESELLSCHAFT, priority 2016, dated 2020).

Tests used:
Format in all cases: in vivo
[1] = test system: Lucilia cuprina; experiment: Lucilia cuprina test; conditions: application rate 100 ppm, L1 larvae, minced horsemeat, after 2 days
Method: Solvent: dimethyl sulfoxide To produce a suitable active ingredient formulation, 10 mg of active ingredient are mixed with 0.5 ml of dimethyl sulfoxide, and the concentrate is diluted with water to the desired concentration. About 20 L1 larvae of the Australian sheep blowfly (Lucilia cuprina) are transferred into a test vessel containing minced horsemeat and the active ingredient formulation of the desired concentration. After 2 days, the kill in % is determined. 100% means that all the larvae have been killed; 0% means that no larvae have been killed.

[2] = test system: Myzus persicae; experiment: Myzus persicae oral test; conditions: 120 h, mixed population of green peach aphids, after 5 days, read-out: efficacy; for pest or weed control at 4 ppm: application rate 4 ppm; for pest or weed control at 20 ppm: application rate 20 ppm
Method: Solvent: 100 parts by weight of acetone To produce a suitable active ingredient formulation, 1 part by weight of active ingredient is dissolved with the stated parts by weight of solvent and made up to the desired concentration with water. 50 μl of the active ingredient formulation are transferred into microtitre plates and made up to a final volume of 200 μl with 150 μl of IPL41 insect medium (33%+15% sugar). Subsequently, the plates are sealed with parafilm, which a mixed population of green peach aphids (Myzus persicae) within a second microtitre plate is able to puncture and imbibe the solution through it. After 5 days, the efficacy in % is determined. 100% means that all the aphids have been killed; 0% means that no aphids have been killed.

[3] = test system: Spodoptera frugiperda; experiment: Spodoptera frugiperda spray test; conditions: application rate 100 g/ha, maize leaf discs, caterpillars, after 7 days
Method: (§1) Solvent: 78.0 parts by weight of acetone • • 1.5 parts by weight of dimethylformamide Emulsifier: alkylaryl polyglycol ether To produce a suitable active ingredient formulation, 1 part by weight of active ingredient is dissolved with the specified parts by weight of solvent and made up to the desired concentration with water containing an emulsifier concentration of 1000 ppm. To produce further test concentrations, the formulation is diluted with emulsifier-containing water. Leaf discs of maize (Zea mays) are sprayed with an active ingredient formulation of the desired concentration and, after drying, populated with caterpillars of the armyworm (Spodoptera frugiperda). After 7 days, the efficacy in % is determined. 100% means that all the caterpillars have been killed; 0% means that no caterpillar has been killed.

[4] = test system: Phaedon cochleariae; experiment: Phaedon cochleariae spray test; conditions: application rate 100 g/ha, Chinese cabbage leaf discs, larvae, after 7 days
Method: as §1, with “water. Discs” for “water. Leaf discs”, “of Chinese cabbage leaves (Brassica pekinensis)” for “of maize (Zea mays)”, “with larvae” for “with caterpillars”, “the mustard beetle (Phaedon cochleariae).” for “the armyworm (Spodoptera frugiperda).”, “the beetle larvae” for “the caterpillars”, “no beetle larvae have” for “no caterpillar has”

[5] = test system: Ctenocephalides felis; experiment: Ctenocephalides felis in vitro contact test with adult cat fleas; conditions: application rate 5 μg/cm^2 (=500 g/ha), coated glass tube, after 48 h
Method: For the coating of the test tubes, 9 mg of active ingredient are first dissolved in 1 ml of acetone p.a. and then diluted to the desired concentration with acetone p.a. 250 μl of the solution are distributed homogeneously on the inner walls and the base of a 25 ml glass tube by turning and rocking on an orbital shaker (rocking rotation at 30 rpm for 2 h). With 900 ppm of active ingredient solution and internal surface area 44.7 cm^2, given homogeneous distribution, an area-based dose of 5 μg/cm^2 is achieved. After the solvent has evaporated off, the glass tubes are populated with 5-10 adult cat fleas (Ctenocephalides felis), sealed with a perforated plastic lid and incubated in a horizontal position at room temperature and ambient humidity. After 48 h, efficacy is determined. To this end, the tubes are stood upright and the fleas are knocked to the base of the tube. Fleas which remain motionless at the base or move in an uncoordinated manner are considered to be dead or moribund. […] 100% efficacy means that all the fleas were dead or moribund. 0% efficacy means that no fleas were harmed.

[6] = test system: Myzus persicae; experiment: Myzus persicae spray test; conditions: application rate 100 g/ha, Chinese cabbage leaf discs, all stages, after 5 days
Method: Solvent: 78 parts by weight of acetone • • 1.5 parts by weight of dimethylformamide Emulsifier: alkylaryl polyglycol ether To produce a suitable active ingredient formulation, 1 part by weight of active ingredient is dissolved with the specified parts by weight of solvent and made up to the desired concentration with water containing an emulsifier concentration of 1000 ppm. To produce further test concentrations, the formulation is diluted with emulsifier-containing water. Discs of Chinese cabbage leaves (Brassica pekinensis) infested by all stages of the green peach aphid (Myzus persicae) are sprayed with an active ingredient formulation of the desired concentration. After 5 days, the efficacy in % is determined. 100% means that all the aphids have been killed; 0% means that no aphids have been killed.

[7] = test system: Ctenocephalides felis; experiment: Ctenocephalides felis oral test; conditions: application rate 100 ppm in citrated cattle blood, adult cat fleas, after 2 days
Method: Solvent: dimethyl sulfoxide To produce a suitable active ingredient formulation, 10 mg of active ingredient are mixed with 0.5 ml of dimethyl sulfoxide. Dilution with citrated cattle blood gives the desired concentration. About 20 unfed adult cat fleas (Ctenocephalides felis) are placed into a chamber which is closed at the top and bottom with gauze. A metal cylinder whose bottom end is closed with parafilm is placed onto the chamber. The cylinder contains the blood/active ingredient formulation, which can be imbibed by the fleas through the parafilm membrane. After 2 days, the kill in % is determined. 100% means that all of the fleas have been killed; 0% means that none of the fleas have been killed.

[8] = test system: Rhipicephalus sanguineus; experiment: Rhipicephalus sanguineus in vitro contact test with adult brown dog ticks; conditions: application rate 5 μg/cm^2 (=500 g/ha), coated glass tube, after 48 h
Method: For the coating of the test tubes, 9 mg of active ingredient are first dissolved in 1 ml of acetone p.a. and then diluted to the desired concentration with acetone p.a. 250 μl of the solution are distributed homogeneously on the inner walls and the base of a 25 ml glass tube by turning and rocking on an orbital shaker (rocking rotation at 30 rpm for 2 h). With 900 ppm of active ingredient solution and internal surface area 44.7 cm^2, given homogeneous distribution, an area-based dose of 5 μg/cm^2 is achieved. After the solvent has evaporated off, the tubes are populated with 5-10 adult dog ticks (Rhipicephalus sanguineus), sealed with a perforated plastic lid and incubated in a horizontal position in the dark at room temperature and ambient humidity. After 48 h, efficacy is determined. To this end, the ticks are knocked to the base of the tube and incubated on a hotplate at 45-50° C. for not more than 5 min. Ticks which remain motionless on the base or move in such an uncoordinated manner that they are unable to deliberately avoid the heat by climbing upwards are considered to be dead or moribund. […] An efficacy of 100% means that all the ticks were dead or moribund. 0% efficacy means that none of the ticks were harmed.

[9] = test system: Musca domestica; experiment: Musca domestica test; conditions: application rate 100 ppm, adult houseflies, after 2 days
Method: Solvent: dimethyl sulfoxide
To produce a suitable active ingredient formulation, 10 mg of active ingredient are mixed with 0.5 ml of dimethyl sulfoxide, and the concentrate is diluted with water to the desired concentration.
Vessels containing a sponge treated with sugar solution and the active ingredient formulation of the desired concentration are populated with 10 adult houseflies (Musca domestica).
After 2 days, the kill in % is determined. 100% means that all of the flies have been killed; 0% means that none of the flies have been killed.

SMILES | efficacy (kill) [1] | pest or weed control at 4 ppm [2] | efficacy [3] | efficacy [4] | efficacy [5] | efficacy [6] | efficacy (kill) [7] | pest or weed control at 20 ppm [2] | efficacy [8] | efficacy (kill) [9]
CCS(=O)(=O)c1c2cc(C(F)(F)F)ccc2nn1-c1nc2cc(C(F)(F)F)cnc2n1C [Example I-5] | 100% | 100% | 100% | 100% | 100% |  |  |  |  | 
CCS(=O)(=O)c1c2c(nn1-c1nc3cc(C(F)(F)F)cnc3n1C)CC(C)(C)CC2 [Example I-11] |  | 100% |  |  |  | 90% |  |  |  | 
CCS(=O)(=O)c1c2cccc(Cl)c2nn1-c1nc2cc(C(F)(F)F)cnc2n1C [Example I-4] |  | 90% |  | 100% |  |  |  |  |  | 
CCS(=O)(=O)c1c2ccc(Cl)cc2nn1-c1nc2cc(C(F)(F)F)cnc2n1C [Example I-1, 2-[6-Chloro-3-(ethylsulfonyl)-2H-indazol-2-yl]-3-methyl-6-(trifluoromethyl)-3H-imidazo[4,5-b]pyridine] | 100% | 90% | 100% | 100% |  |  |  |  |  | 
CCS(=O)(=O)c1c2ccc(C(F)(F)F)cc2nn1-c1nc2cc(C(F)(F)F)ncc2n1C [Example I-12] |  | 100% | 100% | 100% |  |  |  |  |  | 
CCS(=O)(=O)c1c2cc(Cl)ccc2nn1-c1nc2cc(C(F)(F)F)cnc2n1C [Example I-2, 2-[5-Chloro-3-(ethylsulfonyl)-2H-indazol-2-yl]-3-methyl-6-(trifluoromethyl)-3H-imidazo[4,5-b]pyridine] | 100% | 100% | 100% | 100% | 100% |  | 80% | 100% |  | 
CCS(=O)(=O)c1c2ccccc2nn1-c1nc2cc(C(F)(F)F)cnc2n1C [Example I-3] | 100% | 90% |  | 100% |  | 100% |  |  |  | 
CCS(=O)(=O)c1c2c(nn1-c1nc3cc(C(F)(F)F)cnc3n1C)CCCC2 [Example I-10, 2-[3-(Ethylsulfonyl)-4,5,6,7-tetrahydro-2H-indazol-2-yl]-3-methyl-6-(trifluoromethyl)-3H-imidazo[4,5-b]pyridine] | 100% | 100% |  |  | 100% | 90% |  |  | 100% | 
CCS(=O)(=O)c1c2ccc(C(F)(F)F)cc2nn1-c1nc2cc(C(F)(F)F)cnc2n1C [Example I-6] | 100% | 100% | 100% | 100% | 100% |  |  | 100% |  | 90%
